In patent US4393225A, “AI-77 Compounds and pharmaceutically acceptable salts thereof” (Asahi Kasei Kogyo Kabushiki Kaisha, priority 1979, dated 1983):

These compounds were tested on ulcer (assay: Anti-ulcer test (restraint and water immersion ulcer in rats, i.p.)). Settings: Rattus norvegicus, ip, read-out: % Inhibition of Ulcer.
Assay type: in vivo, Male Wistar rats
Protocol: The anti-ulcer and anti-edema activity of the compounds was evaluated in efficacy tests described below.
Male Wistar rats weighing about 150 g on average were not fed for 24 hours before the test. Then a solution or suspension of a predetermined concentration of the test compound in physiological saline was administered to them intraperitoneally. One hour after the administration,each rat was restrained in a net cage and submerged in a water both (21° C.) from the tail to xiphistrenun for 6 hours. Test animals were then killed (by dislocation of the cervical vertebrae), the stomach was removed and incised along the curvatura ventriculi major, and the inside wall of the stomach was pathologically examined under microscopic observation. Rats in which the occurrence of an ulceration was substantially not observed were rated O, while others were rated 0.5, 1, 2 or 3, depending on the severity of the ulcer development. The percent inhibition of ulcer was calculated by the following formula: [formula]

SMILES	inhibition in vivo at 25 mg/kg [%]	inhibition in vivo at 50 mg/kg [%]
CCNC(CC(=O)NCCCl)C(O)C(OC(=O)CC)C(=O)NC(CC(C)C)C1Cc2cccc(O)c2C(=O)O1 (stereo not drawn) [VII-11-4]	56	–
COC(C(=O)NC(CC(C)C)C1Cc2cccc(O)c2C(=O)O1)C(O)C(N)CC(N)=O (stereo not drawn) [VII-8-1]	89	–
CC(C)CC(NC(=O)C(O)C1OC(=O)CC1NCCCCBr)C1Cc2cccc(O)c2C(=O)O1 (stereo not drawn) [IIIa-18-26]	–	94
CCCCC(=O)NC1CC(=O)OC1C(O)C(=O)NC(CC(C)C)C1Cc2cccc(O)c2C(=O)O1 (stereo not drawn) [IIIa-1-6]	–	66

Same assay, conditions: Rattus norvegicus, ip; 25 mg/kg i.p.; read-out: % Inhibition of Ulcer

SMILES	inhibition in vivo at 25 mg/kg [%]
CC(C)CC(NC(=O)C(O)C(O)C(N)CC(=O)NCCc1ccc2ccccc2c1)C1Cc2cccc(O)c2C(=O)O1 (stereo not drawn) [VII-1-19]	78
CNC(CC(N)=O)C(O)C(OC(=O)CC(C)C)C(=O)NC(CC(C)C)C1Cc2cccc(O)c2C(=O)O1 (stereo not drawn) [VII-20-2]	66
CCCC(=O)Oc1cccc2c1C(=O)OC(C(CC(C)C)NC(=O)C(OCC)C(O)C(N)CC(N)=O)C2 (stereo not drawn) [VII-9-4]	78
CCCCCCCCCCCCCCCCCCNC(CC(N)=O)C(O)C(O)C(=O)NC(CC(C)C)C1Cc2cccc(O)c2C(=O)O1 (stereo not drawn) [VII-10-5]	89
CCCCCCCC(=O)NC(CC(N)=O)C(O)C(O)C(=O)NC(CC(C)C)C1Cc2cccc(O)c2C(=O)O1 (stereo not drawn) [VII-28-3]	66
CCNC(CC(N)=O)C(O)C(OC)C(=O)NC(CC(C)C)C1Cc2cccc(OC(=O)C(C)C)c2C(=O)O1 (stereo not drawn) [VII-18-3]	56
CC(=O)Oc1cccc2c1C(=O)OC(C(CC(C)C)NC(=O)C(OC(=O)C(C)C)C(O)C(N)CC(N)=O)C2 (stereo not drawn) [VII-3-1]	78
CC(C)CCNC(=O)CC(N)C(O)C(O)C(=O)NC(CC(C)C)C1Cc2cccc(O)c2C(=O)O1 (stereo not drawn) [VII-1-5]	100
Cc1ccc(CCNC(=O)CC(N)C(O)C(O)C(=O)NC(CC(C)C)C2Cc3cccc(O)c3C(=O)O2)cc1 (stereo not drawn) [VII-1-35]	83
CCCCOc1cccc2c1C(=O)OC(C(CC(C)C)NC(=O)C(OCCCC)C(O)C(N)CC(N)=O)C2 (stereo not drawn) [VII-7-2]	72

Same assay, conditions: Rattus norvegicus, ip; 50 mg/kg i.p.; read-out: % Inhibition of Ulcer

SMILES	inhibition in vivo at 50 mg/kg [%]
CCCCCC(=O)NC1CC(=O)OC1C(O)C(=O)NC(CC(C)C)C1Cc2cccc(O)c2C(=O)O1 (stereo not drawn) [IIIa-1-7]	66
COc1ccc(COc2cccc3c2C(=O)OC(C(CC(C)C)NC(=O)C(O)C2C=CC(=O)O2)C3)cc1 (stereo not drawn) [IVa-4-23]	33
CCCCCCCC/C=C\CCCCCCCC(=O)NC1CC(=O)OC1C(O)C(=O)NC(CC(C)C)C1Cc2cccc(O)c2C(=O)O1 (stereo not drawn) [IIIa-1-13]	44
CC(C)CCc1ccc(COc2cccc3c2C(=O)OC(C(CC(C)C)NC(=O)C(O)C2C=CC(=O)O2)C3)cc1 (stereo not drawn) [IVa-4-22]	33
CC(C)CC(NC(=O)C(O)C1C=CC(=O)O1)C1Cc2cccc(OCc3ccc4ccccc4c3)c2C(=O)O1 (stereo not drawn) [IVa-4-17]	33
CCNC1CC(=O)OC1C(O)C(=O)NC(CC(C)C)C1Cc2cccc(OC(C)=O)c2C(=O)O1 (stereo not drawn) [IIIa-21-1]	78
CC(C)CCOc1cccc2c1C(=O)OC(C(CC(C)C)NC(=O)C(O)C1OC(=O)CC1N)C2 (stereo not drawn) [IIIa-13-4]	100
CC(C)CC(=O)OC(C(=O)NC(CC(C)C)C1Cc2cccc(O)c2C(=O)O1)C1C=CC(=O)O1 (stereo not drawn) [IVa-1-5]	44
CCOc1cccc2c1C(=O)OC(C(CC(C)C)NC(=O)C(O)C1OC(=O)CC1NC(=O)C1CCC(OC)CC1)C2 (stereo not drawn) [IIIa-5-71]	33
CCCCCCCCC=CCCCCCCCCOc1cccc2c1C(=O)OC(C(CC(C)C)NC(=O)C(O)C1OC(=O)CC1NC(C)=O)C2 (stereo not drawn) [IIIa-5-8]	33
CCCCCSCCNC1CC(=O)OC1C(O)C(=O)NC(CC(C)C)C1Cc2cccc(O)c2C(=O)O1 (stereo not drawn) [IIIa-18-39]	94
CC(C)CC(NC(=O)C(O)C1OC(=O)CC1N)C1Cc2cccc(OC(=O)C(Cl)(Cl)Cl)c2C(=O)O1 (stereo not drawn) [IIIa-12-9]	66
CCCC=Cc1ccc(C(=O)NC2CC(=O)OC2C(O)C(=O)NC(CC(C)C)C2Cc3cccc(O)c3C(=O)O2)cc1 (stereo not drawn) [IIIa-1-77]	66
CC(C)CC(NC(=O)C(O)C1OC(=O)CC1N)C1Cc2cccc(OCC3CCCCC3)c2C(=O)O1 (stereo not drawn) [IIIa-13-11]	78
CCOc1cccc2c1C(=O)OC(C(CC(C)C)NC(=O)C(O)C1OC(=O)CC1NC(=O)C(=O)CC)C2 (stereo not drawn) [IIIa-5-32]	44
CC(=O)OC(C(=O)NC(CC(C)C)C1Cc2cccc(O)c2C(=O)O1)C1OC(=O)CC1NC(=O)c1ccc(C)cc1 (stereo not drawn) [IIIa-2-8]	44
CNC1CC(=O)OC1C(OC(C)=O)C(=O)NC(CC(C)C)C1Cc2cccc(OC(C)=O)c2C(=O)O1 (stereo not drawn) [IIIa-29-1]	56
CC(=O)NC1CC(=O)OC1C(O)C(=O)NC(CC(C)C)C1Cc2cccc(OCC(C)C)c2C(=O)O1 (stereo not drawn) [IIIa-5-10]	44
COC(C(=O)NC(CC(C)C)C1Cc2cccc(O)c2C(=O)O1)C1OC(=O)CC1N (stereo not drawn) [IIIa-16-1]	72
CCCCCSCC(=O)NC1CC(=O)OC1C(O)C(=O)NC(CC(C)C)C1Cc2cccc(OCC)c2C(=O)O1 (stereo not drawn) [IIIa-5-44]	33
CC(C)=CC(=O)NC1CC(=O)OC1C(O)C(=O)NC(CC(C)C)C1Cc2cccc(O)c2C(=O)O1 (stereo not drawn) [IIIa-1-81]	66
CC(C)CC(NC(=O)C(O)C1OC(=O)CC1NC(=O)C=Cc1ccoc1)C1Cc2cccc(O)c2C(=O)O1 (stereo not drawn) [IIIa-1-57]	56
CCNC1CC(=O)OC1C(OCC)C(=O)NC(CC(C)C)C1Cc2cccc(OCC)c2C(=O)O1 (stereo not drawn) [IIIa-24-2]	56
CCC(=O)C(=O)NC1CC(=O)OC1C(O)C(=O)NC(CC(C)C)C1Cc2cccc(O)c2C(=O)O1 (stereo not drawn) [IIIa-1-32]	66

SMILES	inhibition in vivo at 50 mg/kg [%]
CC(C)CC(NC(=O)C(O)C1OC(=O)CC1N)C1Cc2cccc(OCc3ccccc3)c2C(=O)O1 (stereo not drawn) [IIIa-13-9]	89
C/C=C/C(=O)NC1CC(=O)OC1C(O)C(=O)NC(CC(C)C)C1Cc2cccc(O)c2C(=O)O1 (stereo not drawn) [IIIa-1-54]	66
CC(C)CC(NC(=N)C(OC(=O)CCC1CCCC1)C(O)C(N)CC(=O)O)C1Cc2cccc(O)c2C(=O)O1 (stereo not drawn) [Vb-2-2]	56
CC(C)CC(NC(=O)C(O)C1OC(=O)CC1NC(=O)c1ccc(C(C)C)cc1)C1Cc2cccc(O)c2C(=O)O1 (stereo not drawn) [IIIa-1-69]	66
CCOc1cccc2c1C(=O)OC(C(CC(C)C)NC(=O)C(O)C1C=CC(=O)O1)C2 (stereo not drawn) [IVa-4-2]	44
C#CCNC1CC(=O)OC1C(O)C(=O)NC(CC(C)C)C1Cc2cccc(O)c2C(=O)O1 (stereo not drawn) [IIIa-18-46]	100
CCCCCCCCCCCCCCCCCC(=O)OC(C(=O)NC(CC(C)C)C1Cc2cccc(OCC)c2C(=O)O1)C1OC(=O)CC1N (stereo not drawn) [IIIa-14-3]	44
CC(C)COc1cccc2c1C(=O)OC(C(CC(C)C)NC(=O)C(O)C1OC(=O)CC1NC(=O)C(C)C)C2 (stereo not drawn) [IIIa-5-4]	33
CNC1CC(=O)OC1C(OC(=O)CC(C)C)C(=O)NC(CC(C)C)C1Cc2cccc(O)c2C(=O)O1 (stereo not drawn) [IIIa-28-2]	66
CC(=O)OC(C(=O)NC(CC(C)C)C1Cc2cccc(O)c2C(=O)O1)C1C=CC(=O)O1 (stereo not drawn) [IVa-1-1]	44
CCOc1cccc2c1C(=O)OC(C(CC(C)C)NC(=O)C(O)C1OC(=O)CC1NC(=O)c1cnc3ccc(OC)cc3c1)C2 (stereo not drawn) [IIIa-5-30]	33
COC(C)(C)CC(=O)NC1CC(=O)OC1C(O)C(=O)NC(CC(C)C)C1Cc2cccc(O)c2C(=O)O1 (stereo not drawn) [IIIa-1-83]	66
CC(C)CC(NC(=O)C(O)C1OC(=O)CC1NC(=O)c1ccccc1)C1Cc2cccc(O)c2C(=O)O1 (stereo not drawn) [IIIa-1-14]	56
CCOc1cccc2c1C(=O)OC(C(CC(C)C)NC(=O)C(O)C1OC(=O)CC1NC(=O)CSC)C2 (stereo not drawn) [IIIa-5-43]	44
CCNC1CC(=O)OC1C(OC(C)=O)C(=O)NC(CC(C)C)C1Cc2cccc(O)c2C(=O)O1 (stereo not drawn) [IIIa-19-1]	66
CCN1CCCC(N=C(NC(CC(C)C)C2Cc3cccc(O)c3C(=O)O2)C(O)C(O)C(N)CC(=O)O)C1 (stereo not drawn) [Vb-1-43]	83
Cc1c(CC(=O)NC2CC(=O)OC2C(O)C(=O)NC(CC(C)C)C2Cc3cccc(O)c3C(=O)O2)ccc2ccccc12 (stereo not drawn) [IIIa-1-21]	56
CCCCNC1CC(=O)OC1C(O)C(=O)NC(CC(C)C)C1Cc2cccc(OCCCBr)c2C(=O)O1 (stereo not drawn) [IIIa-22-92]	94
CCCOC(C(=O)NC(CC(C)C)C1Cc2cccc(OCC)c2C(=O)O1)C1OC(=O)CC1NC(=O)C(Cl)(Cl)Cl (stereo not drawn) [IIIa-7-17]	33
CC(=O)N1CCC(COc2cccc3c2C(=O)OC(C(CC(C)C)NC(=O)C(O)C2OC(=O)CC2N)C3)CC1 (stereo not drawn) [IIIa-13-16]	89
CCCCCSc1ccc(C(=O)NC2CC(=O)OC2C(O)C(=O)NC(CC(C)C)C2Cc3cccc(O)c3C(=O)O2)cc1 (stereo not drawn) [IIIa-1-47]	56
CCCCCOC(C)CC(=O)NC1CC(=O)OC1C(O)C(=O)NC(CC(C)C)C1Cc2cccc(OCC)c2C(=O)O1 (stereo not drawn) [IIIa-5-42]	33
CC(C)CC(=O)Oc1cccc2c1C(=O)OC(C(CC(C)C)NC(=O)C(O)C1C=CC(=O)O1)C2 (stereo not drawn) [IVa-3-11]	44
CC(C)CCc1ccc(C(C)C(=O)NC2CC(=O)OC2C(O)C(=O)NC(CC(C)C)C2Cc3cccc(O)c3C(=O)O2)cc1 (stereo not drawn) [IIIa-1-53]	56

Same assay, conditions: rat, in vivo

SMILES	anti-ulcer activity (in words)
CC(C)CC(NC(=O)C(O)C(O)C(N)CC(=O)O)C1Cc2cccc(O)c2C(=O)O1 (stereo not drawn) [AI-77-B]	high anti-ulcer activity
